This note sets out measurements from PMC12266748, “A Xanthine Derivative With Novel Heat Shock Protein 90‐Alpha Inhibitory and Senolytic Properties” (Aging Cell, 2025).

Where two headings read alike, the source gives them in different places.

In one data set the test system is WI38 cells. Put plainly: SA-β-galactosidase colorimetric assay on senescent WI38. The format is cell-based, Homo sapiens. As for the experimental part: (§1) Previously treated cells were fixed according to the protocols established by the supplier (Cell Signaling). The images were acquired using an optical microscope (Leica) with 5× and 10× magnification (MAG) or the phase microscopy EVOS XL Core at 10× MAG and analyzed using the ImageJ software. The mean signal intensity was then normalized for the total number of cells.
(§2) β-galactosidase colorimetric assay. For cell cultures: Previously treated cells were fixed with the fixative solution for 10 min at RT according to the protocols established by the supplier (Senescence β-Galactosidase Staining Kit, #9860S, Cell Signaling, Danvers, MA, USA) Cells were then incubated with the substrate, X-gal, in a solution at pH 6, at 37°C, overnight (16 h) (Itahana et al. 2007). The images were acquired using an optical microscope (Leica, Wetzlar, Germany) with 5 and 10X magnification or the phase microscopy EVOS XL Core at 10X magnification. The images were analyzed using the ImageJ software, quantifying the colorimetric signal emitted by each cell. The mean signal intensity was then normalized for the total number of cells.

Data set [1] can be described thus: Mouse plasma exposure after oral and intravenous administration, brain and kidney distribution. The format is in vivo, CD1 mouse. The following applies: for Kp: CD1, mouse, relative to plasma; for half-life: read-out: T ½ in plasma. The procedure: APHAD S.r.l (Buccinasco, MI, Italy) performed all evaluations. Detailed protocols are reported in the extended methods section.
Determination of the mouse plasma exposure of K5 after oral […] and intravenous (IV) administration. Determination of K5 distribution in brain and kidney after IV administration. Weighed tissues were homogenized with a Precellys Evolution Homogenizer 1g/5mL of 20 mM ammonium formate buffer pH 6.5 using 3 cycles 25 sec at a speed of 7600 rpm. Plasma or tissue was added to ACN containing Verapamil as Internal standard (0.1 µM) in a […]. Samples were shaken for 10 min at 300 rpm at RT and centrifuged for 15 min at 10°C at 4700 rpm. Working solutions (WS) for the calibration curves and QC samples were prepared by diluting ACN in the range 10-20000ng/mL range. Verapamil was diluted in ACN to reach the final concentration of 0.1 µM (WS_IS). Samples were analyzed on an Acquity UPLC (Waters) coupled with an API 3200 Triple Quadrupole ABSciex. Non-compartmental analysis was applied, and the following pharmacokinetic (PK) parameters were evaluated for each subject or group of subjects: maximum plasma concentration (Cmax), plasma concentration at last timepoint (Clast), time of maximum plasma concentration (Tmax), AUC from time zero to the time of the last quantifiable plasma concentration (AUC0-last), AUC from time zero extrapolated to infinity (AUCinf), mean residence time (MRT), half-life (T½). AUCs were calculated using a linear trapezoidal rule, and a uniform weight was performed as the first general approach. Graphical concentration-time curves are produced after Log transformation (PK Solver 2.0, Excel 2007 Microsoft add-in). The ke was estimated from the terminal part of the log-concentration time plot, which included at least three data points excluding the Cmax. If the terminal phase regression based on R2 was less than 0.85, then the T½ and the AUC0-inf were not reported.

The subject of the next data set is MCF7 cells. Put plainly: Annexin V staining of senescent MCF7 (Incucyte). Type of data set: cell-based, Homo sapiens. The following applies: Tamoxifen-induced senescent MCF7, K5 10 μM, after 24 h, over 96 h. The procedure: Senescent MCF7 cells were treated with K5 and Incucyte Annexin V NIR Dye (Sartorius). Cells were monitored using the Incucyte live‐cell Analysis system (Sartorius). Images were acquired using the phase microscopy EVOS XL Core at 10× magnification and analyzed using the ImageJ software.
Annexin V staining. MCF7 were plated 24 h before the treatment with 4-Hydroxytamoxifen (TAM) 10 μM for 96 h to induce the senescence described by (Lee et al. 2014). Control cultures were treated with equal volumes of 75% ethanol as the vehicle. Then, cells were washed and treated with the senolytic drug K5 10 µM and DMSO as solvent control for another 96 h and with the Incucyte Annexin V NIR Dye (1:200, Sartorius). Cells were monitored using the Incucyte live-cell Analysis system (Sartorius). The images were acquired using the phase microscopy EVOS XL Core at 10X magnification and analyzed using the ImageJ software. The mean signal intensity was then normalized for the total number of cells.

The next data set relates to IMR90 cells. Put plainly: SA-β-galactosidase colorimetric assay on senescent IMR90. The format is cell-based, Homo sapiens. The procedure:
as §1, §2

Setting [2] is: plasma, oral 30 mg/kg, CD1 mouse.

For the compound `Cc1ccccc1-n1c(=O)n(Cc2ccccc2)c(=O)c2[nH]cnc21` [Compound K5, 1-benzyl-3-(2-methylphenyl)-7H-purine-2,6-dione], the results for the “reduced SA-β-gal+ cells” value with WI38 cells and with IMR90 cells were 10% and 20%, respectively. The Kp in data set [1] (brain, IV 5 mg/kg, read-out: distribution in the brain) was 0.35; in data set [1] (kidney, IV 5 mg/kg, read-out: distribution in the kidney), 1.31. The distribution volume entry in data set [1] (IV 5 mg/kg, CD1 mouse) is “high”. Moreover, the “time of Cmax” value in data set [1] (oral 30 mg/kg, CD1 mouse) is listed as 10 min. In data set [1] (plasma, IV 5 mg/kg, CD1 mouse), this compound registered a clearance of 38 mL/min/kg. In addition, the half-life was 0.217 h in data set [1] (plasma, IV 5 mg/kg, CD1 mouse) and about 5 h in data set [1] (setting [2]). Further, the bioavailability (usually the share of a dose that reaches the circulation, judged against a reference dose that is usually intravenous) in data set [1] (plasma, oral 30 mg/kg vs IV 5 mg/kg, CD1 mouse) turned out to be 54%. In addition, in data set [1] (setting [2]), the highest concentration (Cmax) (as a rule, the peak of the concentration-time curve) was determined as 2800 ng/mL. In addition, the mean residence time MRT (in general, the average time that molecules of a dose stay in the body) in data set [1] (plasma, oral 30 mg/kg, CD1 mouse, read-out: mean residence time (MRT) (converted)) is about 5 h. In addition, the “Annexin V signal” value in the data set on MCF7 cells is “significant and stable increase”.
